Source: patent US20140194528A1, “USAGE OF SODIUM HOUTTUYFONATE ON INHIBITING IDIOPATHIC PULMONARY FIBROSIS AND BLEOMYCIN INDUCED PULMONARY FIBROSIS” (Hong Kong Baptist University, priority 2013, published 2014)

How the values were obtained:
[1] = system: BLM induced pulmonary fibrosis mice model; experiment: Bleomycin (BLM) induced pulmonary fibrosis mice model, treatment with SH or PA; format: in vivo, Kunming mice; settings: for lung inflammatory cell infiltration and collagen deposition (H&E staining): 7th, SH both high (90 mg/kg) and low (45 mg/kg) concentrations (FIG. 2); for lung inflammatory cell infiltration and collagen deposition (H&E staining) / lung/body weight ratio: 14th and 28th day; for lung/body weight ratio: SH oral once a day, p<0.05 / p<0.01 vs BLM group (FIG. 1); for hydroxyproline production in lung tissue: 28th day samples, p<0.05 / p<0.01 vs BLM group (FIG. 3C); for deposition of collagens (Sirius Red staining, polarized light): all sample collection time points (7th, 14th, 28th day), SH 90 and 45 mg/kg (FIG. 3A); for collagen I/III ratio: all time points (FIG. 3B)
Method: Kunming mice were obtained from Shanghai Experimental Animal Center, Chinese Academy of Sciences. The animals were housed in stainless steel metabolite cages and observed under a 12 hours light-12 hours dark cycle in a well-ventilated room at 23° C±2° C. They were fed with standard pellet food and tap water ad libitum. The study was approved by the Animal Care and Use Committee of Shanghai University of Traditional Chinese Medicine, and was performed in accordance with the National Institute of Health guidelines for the care and handling of animals.
One hundred and twenty mice (male, 8 weeks old, 18-22 g) were randomly divided into the following 5 groups: sham control operation group (Control); BLM treatment group (BLM); prednisone acetate treatment group (BLM+PA); high concentration SH treatment group (BLM+SH High); and low concentration SH treatment group (BLM+SH Low). In the control group, mice received 1 ml/kg 0.9% sterile saline intratracheally under pentobarbital sodium anesthesia. In the BLM group, mice received a single dose of BLM intratracheally (5 mg in 1 ml sterile saline/body weight (kg)). The control and BLM groups received saline (oral, 5 ml/body weight (kg)) once a day for 4 weeks after BLM injection. We selected the doses of SH based on our previous report and small-scale preliminary experiments. We employed two different administration concentrations. SH was administered orally once a day to both the high (90 mg/kg) and low (45 mg/kg) concentration SH groups. On the 7th, 14th or 28th day, the mice were anesthetized with pentobarbital sodium (50 mg/kg) intraperitoneally.
The lungs were immersed in buffered formalin (10%) for 48 h, then embedded in paraffin and sliced (5 μm) and stained with H&E, or Sirius red. Each sample slice was photographed (x200 magnification) under the microscope (Olympus BX51, 167 Japan). All photos were analyzed with the image-Pro Plus 6.3 analyzing software (Media Cybernetics, Bethesda, Md. USA) by computer. Type I and type III collagen accumulation in the interstitial space of the lung was assessed by polarized light microscopy. Type I or type III collagen volume fraction (CVF) was also determined with Image-Pro 6.3 analyzing software.
All values were expressed as mean±standard deviation (SD). Statistical analysis was performed by one-way analysis of variance for multiple comparisons, followed by Student-Newman-Keuls test to evaluate the difference between two groups. Values of p<0.05 were considered statistically significant for all analyses.

mice lung = experiment: Small-scale preliminary experiments with two dosages of BLM in mice; format: in vivo
Method: Two different dosages of BLM (2.5 mg/kg, 5mg/kg) were given to 10 mice (5 mice for each group) for small-scale preliminary experiments. On the 7th and 14th day, the mice were anesthetized with pentobarbital sodium (50 mg/kg) intraperitoneally. […]. […] Therefore, 5 mg of BLM in 2.5 ml sterile saline/body weight (kg) was used to generate BLM induced pulmonary fibrosis mice model. In the BLM group, mice received a single dose of BLM. After the instillation of saline or BLM, the lung/body weight ratio were obtained on the 7th, 14th, and 28th day. […] Both PA and SH reduced the lung/body weight ratio on the 14th and 28th day in BLM mice (*p<0.05, **p<0.01). Meanwhile, there was no significant difference in body weight among all groups.

Molecule | lung inflammatory cell infiltration and collagen deposition (H&E staining) ([1]; BLM mice) | lung/body weight ratio ([1]; BLM mice) | hydroxyproline production in lung tissue ([1]; BLM mice) | deposition of collagens (Sirius Red staining, polarized light) ([1]; BLM mice) | collagen I/III ratio ([1]; BLM+PH group) | cytokine (IL-1β, IL-6 and TNF-α) production in lung tissues ([1]; BLM mice) | body weight ([1]; BLM mice, higher dose of SH) | collagen I/III ratio ([1]; BLM+SH High (90 mg/kg)) | collagen I/III ratio ([1]; BLM+SH Low (45 mg/kg)) | pathological change of lung (mice lung; BLM 2.5 mg/kg, 7th and 14th day (data not shown)) | death (mice lung; BLM 5 mg/kg) | lung tissue histological examination (mice lung; BLM 5 mg/kg, 7th and 14th day)
CC(=O)OCC(=O)[C@@]1(O)CC[C@H]2[C@@H]3CCC4=CC(=O)C=C[C@]4(C)[C@H]3C(=O)C[C@@]21C [PA, prednisone acetate] | reduced | reduced | suppressed | reduced | low collagen I/III ratios |  |  |  |  |  |  | 
CCCCCCCCCC(=O)CC(O)S(=O)(=O)O (stereo not shown) [SH, Sodium Houttuyfonate] | reduced | reduced | suppressed | reduced |  | inhibit | without adversely affecting the body weight | low collagen I/III ratios | low collagen I/III ratios |  |  | 
Bleomycin [BLM] |  |  |  |  |  |  |  |  |  | not significant | no death | showed the fibrotic morphology
